Results taken from patent US20160067232A1, “METHODS FOR TREATING A STROKE-RELATED SENSORIMOTOR IMPAIRMENT USING AMINOPYRIDINES” (Acorda Therapeutics, Inc., priority 2011, published 2016).
Several values for one entry are separate records, joined by “and”; a condition that tells them apart may be missing. Identical values can stand only once. Like-named read-outs stand apart in the source and are kept apart here.

Key:
potassium channels = settings: cited from earlier work
[1] = test system: rats with middle cerebral artery occlusion (MCAO); assay: Forelimb placing test, MCAO rats, dose escalation study (Example 17); format: in vivo, Sprague Dawley rat; settings: for Forelimb placing compared to vehicle: p<0.001
Text: The limb placing tests were divided into forelimb and hindlimb tests. For the forelimb-placing test, the examiner held the rat close to a tabletop and scored the rat's ability to place the forelimb on the tabletop in response to whisker, visual, tactile, or proprioceptive stimulation. Similarly, for the hindlimb placing test, the examiner assessed the rat's ability to place the hindlimb on the tabletop in response to tactile and proprioceptive stimulation. Together, these tests reflect function and recovery in the sensorimotor systems (De Ryck et al., Brain Res 1992; 573:44-60). Separate sub-scores were obtained for each mode of sensory input and added to give total scores (for the forelimb placing test: 0=normal, 12=maximally impaired; for the hindlimb placing test: 0=normal; 6=maximally impaired). Scores were given in half-point increments (see below). Typically, there is a slow and steady recovery of limb placing behavior during the first month after stroke.
Forelimb placing test (0-12): • whisker placing (0-2); • visual placing (forward (0-2), sideways (0-2)) • tactile placing (dorsal (0-2), lateral (0-2)) • proprioceptive placing (0-2).
For each subtest, animals are scored as followed: • 0.0=immediate response • 0.5=response within 2 seconds • 1.0=response of 2-3 seconds • 1.5=response of >3 seconds • 2.0=no response
4-AP was evaluated for its ability to promote functional sensorimotor improvement following ischemic stroke in rats with stable motor deficits at times remote from their ischemic events. The animal model of ischemic stroke, i.e., the MCAO model, used in this example is the same as the animal model described in Example 2.
In the MCAO model recovery begins to plateau by 4 weeks after MCAO, at which time there are still measurable deficits in sensorimotor function. However, 4 weeks after MCAO there may still be slow continued endogenous recovery.
4-aminopyridine was dissolved in water for injection (WFI, Cellgro) and sterile filtered. […]

[2] = test system: rats with middle cerebral artery occlusion (MCAO); assay: Cylinder test, total movement, MCAO rats (Example 2); format: in vivo, Sprague Dawley rat; settings: individual animals and Mean (N=15), listed as 4-AP
Description: Dosing and Treatment: Rats were treated in accordance with the dosing schedule shown in Tables 2A, 2B, 3 and FIG. 2, with each Phase being a two week period of time. A solution of 4-AP was used in this experiment. Dosing was started at 4 weeks after ischemic event. 4-aminopyridine was dissolved in water for injection (WFI, Cellgro) and sterile filtered. […] Vehicle control treatment was WFI delivered at 2 mL/kg by gastric gavage. […] Starting on day 30 after MCAO (Day 30, start of phase 1), the animals received gavage dosing of solutions (2 mL/kg) approximately 12 hours apart, for a total of five doses. The same schedule was repeated with different treatment on Day 44 and Day 58 for phase 2 and 3 of the study, respectively. Animals were not treated during the 10 days between phases (washout period). Treatment groups: Dosing was started 4 weeks after MCAO surgery. During these 4 weeks, weekly behavioral assessments, as defined below, were performed. Two dose levels of 4-AP plus vehicle control were assessed, with treatment starting at 4 weeks after ischemic event. […] Animals were given the first dose and behavioral assessments were performed starting 60 minutes after dosing. Animals then received the second dose that day at the appropriate time and b.i.d (preferably every 12 hours) thereafter for 2 more days (3 total days of dosing, 5 total doses). One hour after the 5th dose, animals were subjected to behavioral assessments as defined below. Following the final behavioral assessment, drug was withdrawn for 10 or 11 days, behavior was re-assessed, and then animals were re-challenged with a cross-over treatment (Phase 2 of Table 2B) as described in Tables 2A, 2B and 3, followed by the same behavioral testing and dosing regimen. This cross-over was repeated one more time as well (Phase 3 of Table 2B) (see FIG. 2). Cylinder Test: Evaluation was performed at Day −1 (pre-operation), Day 7, Day 21, Day 30, Day 32, Day 44, Day 46, Day 58, Day 60. This test assessed limb use asymmetry. Rats were placed in a transparent cylinder (20 cm in diameter and 30 cm in height) for 3-6 minutes. A mirror was placed behind the cylinder to determine forelimb movements when animal was turned away from the camera. […] Simultaneous use of both left and right forelimbs while contacting the wall during a full rear was also scored. A total number of 20 forelimb placings were counted during a trial. Data was expressed in terms of percent use of the non-impaired and or impaired forelimb relative to the total number of limb use observations for wall movements.

[3] = human subjects; Donovan et al., Spinal Cord 2000; cited from earlier work

In the case of Nc1ccncc1 [4-aminopyridine], the “potassium channel blocking activity” value (potassium channels; at high concentration (millimolar concentrations)) is listed as “broad-spectrum blocker of potassium channels”, the “potassium channel blocking activity” value (potassium channels; at plasma concentrations obtained in clinical studies (<1 microM)) is listed as “selective for certain types of these channels” and the “Forelimb placing compared to vehicle” value ([1]; 0.5 mg/kg b.i.d. p.o., Day 59, treatment started Day 56 after MCAO) is listed as “significantly improved in forelimb placing”. For the same compound, the “Forelimb placing compared to vehicle” value ([1]; 1 mg/kg b.i.d. p.o., Day 62) was “measureable improvement”, the “Forelimb function compared to vehicle” value ([1]; 2 mg/kg b.i.d. p.o., Day 65, p<0.0001) was “significant improvements” and the “Cylinder Test (Total Movement) Group 1, D30” value ([2]; Group 1, D30, treatment phase 1 (high-dose 4-AP)) was 0.00 (5×) and 75.00 and 2.00 and 10.00 (2×) and 6.00 and 13.00 and 12.00 and 4.00 and 5.00 (2×). The “Cylinder Test (Total Movement) Group 1, D32” value ([2]; Group 1, D32, treatment phase 1 (high-dose 4-AP)) was 11.00 and 54.00 and 22.00 and 39.00 and 10.00 and 8.00 and 14.00 and 15.00 and 0.00 (2×) and 38.00 and 2.00 and 1.00 and 6.00 and 23.00, the “Cylinder Test (Total Movement) Group 1, D44” value ([2]; Group 1, D44, treatment phase 2 (low-dose 4-AP)) was 28.00 and 93.00 and 48.00 and 57.00 and 47.00 and 9.00 and 11.00 and 5.00 and 66.00 and 25.00 and 6.00 and 43.00 and 20.00 and 7.00 and the “Cylinder Test (Total Movement) Group 1, D46” value ([2]; Group 1, D46, treatment phase 2 (low-dose 4-AP)) was 11.00 and 47.00 and 43.00 and 48.00 and 46.00 and 12.00 and 63.00 and 4.00 and 0.00 (2×) and 13.00 and 2.00 and 6.00 and 39.00 and 24.00. For the same compound, the “delay in the peak concentration in cerebrospinal fluid compared to that in the blood” value [3] was “approximately an hour”.
